Experimental findings from patent US6180596A, “Methods of inhibiting phospholipase A2 and phospholipase A2 stimulator activities” (Wisconsin Alumni Research Foundation, priority 1998, dated 2001) are described below.

“Also recorded” adds a separate entry of the source.

The test has as its system elastase. Briefly: Degradation of rabbit lung Annexin I to 33 kDa(BP) by elastase, with and without PMSF. In kind it is biochemical. To be noted: PMSF present in the reaction solution; concentration not given; substrate rabbit lung Annexin I.

For `O=S(=O)(F)Cc1ccccc1` [PMSF, phenylmethyl sulfonyl fluoride], the “inhibition of the proteolytic hydrolysis of Annexin I catalyzed by elastase” value is “totally inhibited; also recorded: prevented Annexin I degradation”.
